Data as given in US10561676B2, “Method for treating cancer using dual antagonists of CXCR1 and CXCR2” (Syntrix Biosystems, Inc., priority 2018, dated 2020).

Assays:
[1] = system: TRIA mouse model of melanoma; assay: TRIA mouse model of melanoma
Protocol: Treatment regimens were started following tumor manifestation. SX-682 was given orally via medicated feed, at an approximate dose of 10 mg/day/mouse. CP was administered once weekly via intraperitoneal injection at a dose of 50 mg/kg.

[2] = system: B16-F10 syngeneic mouse model of melanoma; assay: B16-F10 syngeneic mouse model of melanoma; type: in vivo
Protocol: The B16-F10 mouse model is an established model of melanoma, Overwijk, 2001, CURR PROTOC IMMUNOL, Chapter 20: Units 20-21 (herein incorporated by reference), which was used to evaluate the effect of SX-682 alone and in combination with anti-PD1 antibody. B16-F10 mouse melanoma cells were cultured, then mice were injected with 0.5×10^6 B16-F10 cells on day 0, and treatment was initiated on day 18. Mice were treated with vehicle (control), SX-682 alone (50 mg/kg twice daily, oral), anti-PD-1 alone (100 μg twice weekly, i.p.), or SX-682 in combination with anti-PD-1 (N=4-5 per cohort). SX-682 was used as a spray dried dispersion (Formulation Example 1), and was administered to mice via oral gavage as a suspension in 0.5% aq. methylcellulose. […] Data and error bars are the mean±SE.

CXCR1 = molecular target: T1, CXCR1 (Homo sapiens, UniProt P25024); assay: Wash-resistant inhibition of CXCL8-mediated calcium flux, CXCR1-transfected RBL cells; type: cell-based; conditions: 30 min incubation at 0.4, 2, 10 μM, then washout
T1 construct: expressed in transfected cells
T1 sequence (P25024 1-350): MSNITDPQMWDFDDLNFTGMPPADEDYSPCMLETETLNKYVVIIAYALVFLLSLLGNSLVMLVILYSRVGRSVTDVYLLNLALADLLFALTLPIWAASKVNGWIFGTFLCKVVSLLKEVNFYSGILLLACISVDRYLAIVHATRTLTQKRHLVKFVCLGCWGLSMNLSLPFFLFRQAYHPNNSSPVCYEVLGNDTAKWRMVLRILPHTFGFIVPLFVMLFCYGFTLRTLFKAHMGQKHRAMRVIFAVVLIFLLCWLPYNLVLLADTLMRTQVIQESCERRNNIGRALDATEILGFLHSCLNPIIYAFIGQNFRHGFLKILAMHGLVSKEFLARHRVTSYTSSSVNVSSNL
Protocol: In order to test this hypothesis, RBL cells (10^7 cells/ml) stably transfected with either CXCR1 or CXCR2 were (1) incubated with SX-682 at various concentrations for 30 minutes at 37° C., (2) washed and resuspended in assay buffer (RPMI/2% serum) at room temperature, and (3) assayed for CXCL8-mediated calcium response at time points up to 12 h after inhibitor washout. The concentrations of SX-682 tested were 0 (positive control), 0 (negative control), 0.4, 2, and 10 μM. At 30 minutes before each time point, a 56.25 μl aliquot of the cells were removed and loaded for 30 minutes at room temperature in the dark with FLIPR™ 3 reagent (262.5 μl per tube). Following FLIPR™ 3 incubation, cells were assayed for CXCL8 mediated intracellular calcium release as described in Pharmacology Example 1.

[3] = system: isolated human neutrophils; assay: CXCL8-mediated intracellular calcium flux in isolated human neutrophils; type: cell-based; conditions: Neutrophil, 25 nM CXCL8, mean ±SE
Protocol: Cells were incubated for 30 min at 37° C. […] The test compound or DMSO (control) was added again at the same concentrations that were used during cell loading.
The maximum change in fluorescence, expressed in arbitrary units over baseline (Max-Min), was used to determine the CXCL8 response.

Sprague-Dawley rats = assay: Ozone rat model of pulmonary inflammation (neutrophil influx into BALF); type: in vivo
Protocol: SX-682 was assayed in an in vivo rat model of pulmonary inflammation. Activity in this model of pulmonary inflammation provides evidence that supports the use of SX-682 in the treatment of a number of pulmonary inflammatory diseases, including chronic obstructive pulmonary disease (COPD) and bronchopulmonary dysplasia (BPD). In this experiment, Sprague-Dawley rats (n=4 per cohort) were dosed intravenously only once at t=0 with either vehicle control (dimethylformamide/PEG400/saline, 40:40:20), positive inhibitor control (SX-576, 1 mg/kg) or the test compound (SX-682, 1 mg/kg). The rats were then placed in air (negative exposure group; vehicle control only) or 1 ppm ozone (positive exposure group; vehicle control, positive inhibitor control SX-576, and test compound SX-682) for 4 hours. The rats were then sacrificed at t=24 hours, and the bronchoalveolar lavage fluid (BALF) was collected. The cells were spun down, stained with Wright-Giemsa and counted. In the negative exposure group, no neutrophils were observed when stained. In the ozone exposed rats treated with vehicle however, there was a brisk influx of neutrophils of approximately 14,000 per mL of BALF (FIG. 5).

O=C(Nc1ccc(F)cc1)c1cnc(SCc2cc(OC(F)(F)F)ccc2B(O)O)nc1 [SX-682, 2-(2-boronic acid-5-trifluoromethoxy-benzylsulfanyl)-pyrimidine-5-carboxylic acid (4-fluoro-phenyl)-amide]
tumor growth, SX-682 alone ([1]; 10 mg/day/mouse oral feed): significantly slowed tumor growth | complete remission (zero tumor volume), SX-682 combination with CP ([1]; SX-682 10 mg/day/mouse oral feed + CP 50 mg/kg weekly i.p.): 5 of 11 | tumor growth, SX-682 monotherapy ([2]; 50 mg/kg twice daily, oral): significantly slowed tumor growth | tumor growth, SX-682 in combination with anti-PD-1 ([2]; SX-682 50 mg/kg twice daily oral + anti-PD-1 100 μg twice weekly i.p.): significantly better than either therapy alone | time inhibition of calcium flux is sustained after washout (CXCR1): at least 12 hours | IC50 [3]: 55 ± 6 nM | influx of neutrophils into the lungs (BALF) vs vehicle (Sprague-Dawley rats; 1 mg/kg i.v. once, 1 ppm ozone 4 hours, BALF at 24 hours): significantly decreased the influx of neutrophils | time inhibition of neutrophil influx into BALF is sustained (Sprague-Dawley rats; single dose of 1 mg/kg i.v.): 24 h
